{"source": "patent US8778837B2", "about": "“Use of active substance combinations for controlling animal pests” (priority 2007, dated 2014)", "format_in_all_cases": "in vivo", "key": {"[1]": {"system": "Phaedon cochleariae larvae", "test": "Phaedon cochleariae larvae test (cabbage leaf dip)", "source_text": "(§1) The activity to be expected for a given combination of two active substances can be calculated as follows (cf. Colby, S. R., “Calculating Synergistic and Antagonistic Responses of Herbicide Combinations”, Weeds 15, pages 20-22, 1967):\n(§2) • X means the degree of destruction expressed in % of the untreated control when using active substance A at an application rate of m ppm or m g/ha, • Y means the degree of destruction expressed in % of the untreated control when using active substance B at an application rate of n ppm or n g/ha, and • E means the degree of destruction expressed in % of the untreated control when employing active substances A and B at application rates of m and n ppm or m and n g/ha, then\n(§3) If the actual insecticidal degree of destruction is greater than calculated, the combination is superadditive regarding its destruction, i.e. a synergistic effect is present. In this case, the degree of destruction which is actually observed must exceed the value calculated on the basis of the above formula for the expected degree of destruction (E).\nPhaedon Cochleariae Larvae Test\n(§4) Solvent: 7 parts by weight of dimethylformamide\n(§5) Emulsifier: 2 parts by weight of alkylaryl polyglycol ether\n(§6) To prepare a suitable preparation of active substance, 1 part by weight of active substance is mixed with the stated amounts of solvent and emulsifier, and the concentrate is diluted to the desired concentration with emulsifier-containing water.\nCabbage leaves (Brassica oleracea) are treated by being dipped into the active substance preparation of the desired concentration and are populated with mustard beetle larvae (Phaedon cochleariae) while the leaves are still moist.\nAfter the desired period of time, the destruction is determined in %. Here, 100% means that all the beetle larvae have been destroyed; 0% means that no beetle larvae have been destroyed. The destruction rates which have been determined are entered in the Colby formula (see sheet 1)."}, "[2]": {"system": "Plutella xylostella, sensitive strain", "test": "Plutella xylostella test (sensitive strain, cabbage leaf dip)", "source_text": "as §1, §2, §3\nPlutella-Xylostella Test (Sensitive Strain)\nas §4, §5, §6\nCabbage leaves (Brassica oleracea) are treated by being dipped into the active substance preparation of the desired concentration and are populated with diamondback moth caterpillars (Plutella xylostella, sensitive strain) while the leaves are still moist.\n(§7) After the desired period of time, the destruction is determined in %. Here, 100% means that all the caterpillars have been destroyed; 0% means that no caterpillars have been destroyed. The destruction rates which have been determined are entered in the Colby formula (see sheet 1)."}, "[3]": {"system": "Spodoptera frugiperda", "test": "Spodoptera frugiperda test (cabbage leaf dip)", "source_text": "as §1, §2, §3\nSpodoptera frugiperda Test\nas §4, §5, §6\nCabbage leaves (Brassica oleracea) are treated by being dipped into the active substance preparation of the desired concentration and are populated with armyworm caterpillars (Spodoptera frugiperda) while the leaves are still moist.\nas §7"}, "[4]": {"system": "Myzus persicae", "test": "Myzus persicae test (cabbage leaf dip)", "source_text": "as §1, §2, §3, §4, §5, §6\nCabbage leaves (Brassica oleracea) which are severely infested with the green peach aphid (Myzus persicae) are treated by being dipped into the active substance preparation of the desired concentration.\nAfter the desired period of time, the destruction is determined in %. Here, 100% means that all the aphids have been destroyed; 0% means that no aphids have been destroyed. The destruction rates which have been determined are entered in the Colby formula (see sheet 1)."}}, "note": "Values joined by “and” are separate entries in the source; they are usually repeats but may differ in a detail not shown here. Identical values can stand only once.", "data": [{"compound": "CN/C(=N\\[N+](=O)[O-])NCc1cnc(Cl)s1", "note": "[Clothianidin, clothianidin]", "values": [{"measurement": "Destruction in % after 6 d", "setting": "[1]; 4 ppm", "value": 65, "unit": "%"}, {"measurement": "Destruction in % after 6 d", "setting": "[2]; 20 ppm", "value": 25, "unit": "%"}, {"measurement": "Destruction in % after 3 d", "setting": "[3]; 4 ppm", "value": 95, "unit": "%"}, {"measurement": "Destruction in % after 6 d", "setting": "[4]; 0.8 ppm", "value": 55, "unit": "%"}]}, {"compound": "N#Cc1nn(-c2c(Cl)cc(C(F)(F)F)cc2Cl)c(N)c1[S+]([O-])C(F)(F)F", "note": "(stereo not shown) [Fipronil, fipronil]", "values": [{"measurement": "Destruction in % after 6 d", "setting": "[3]; 0.8 ppm", "value": 5, "unit": "%"}, {"measurement": "Destruction in % after 6 d", "setting": "[4]; 100 ppm", "value": 65, "unit": "%"}]}, {"compound": "O=[N+]([O-])NC1=NCCN1Cc1ccc(Cl)nc1", "note": "[Imidacloprid]", "values": [{"measurement": "Destruction in % after 6 d", "setting": "[1]; 20 ppm", "value": 75, "unit": "%"}, {"measurement": "Destruction in % after 6 d", "setting": "[4]; 0.8 ppm", "value": 75, "unit": "%"}]}, {"compound": "N#Cc1ccccc1NC(=O)c1snc(Cl)c1Cl", "note": "[Isotianil, 3,4-dichloro-2′-cyano-1,2-thiazole-5-carboxanilide]", "values": [{"measurement": "Destruction in % after 6 d", "setting": "[1]; 500 ppm", "value": 0, "unit": "%"}, {"measurement": "Destruction in % after 6 d", "setting": "[2]; 500 ppm", "value": 0, "unit": "%"}, {"measurement": "Destruction in % after 3 d", "setting": "[3]; 500 ppm", "value": 10, "unit": "%"}, {"measurement": "Destruction in % after 1 d", "setting": "[4]; 500 ppm", "value": 0, "unit": "%"}, {"measurement": "Destruction in % after 6 d", "setting": "[4]; 500 ppm", "value": "10% and 0%"}]}, {"compound": "N#C/N=C1\\SCCN1Cc1ccc(Cl)nc1", "note": "[Thiacloprid]", "values": [{"measurement": "Destruction in % after 6 d", "setting": "[1]; 4 ppm", "value": 0, "unit": "%"}, {"measurement": "Destruction in % after 6 d", "setting": "[2]; 20 ppm", "value": 45, "unit": "%"}, {"measurement": "Destruction in % after 6 d", "setting": "[4]; 0.8 ppm", "value": 45, "unit": "%"}]}, {"compound": "CN1COCN(Cc2cnc(Cl)s2)/C1=N\\[N+](=O)[O-]", "note": "[Thiamethoxam]", "values": [{"measurement": "Destruction in % after 6 d", "setting": "[1]; 20 ppm", "value": 80, "unit": "%"}, {"measurement": "Destruction in % after 6 d", "setting": "[3]; 20 ppm", "value": 70, "unit": "%"}, {"measurement": "Destruction in % after 1 d", "setting": "[4]; 0.8 ppm", "value": 75, "unit": "%"}]}]}
